For one test, the target named is T1, TLR7 (Homo sapiens, UniProt Q9NYK1).
T1 construct: lymphocytes, monocytes and dendritic cells that express TLR7, TLR8 and TLR9; endogenous in cells; host or cells: human PBMCs from healthy donors
T1 sequence (Q9NYK1 27-1049): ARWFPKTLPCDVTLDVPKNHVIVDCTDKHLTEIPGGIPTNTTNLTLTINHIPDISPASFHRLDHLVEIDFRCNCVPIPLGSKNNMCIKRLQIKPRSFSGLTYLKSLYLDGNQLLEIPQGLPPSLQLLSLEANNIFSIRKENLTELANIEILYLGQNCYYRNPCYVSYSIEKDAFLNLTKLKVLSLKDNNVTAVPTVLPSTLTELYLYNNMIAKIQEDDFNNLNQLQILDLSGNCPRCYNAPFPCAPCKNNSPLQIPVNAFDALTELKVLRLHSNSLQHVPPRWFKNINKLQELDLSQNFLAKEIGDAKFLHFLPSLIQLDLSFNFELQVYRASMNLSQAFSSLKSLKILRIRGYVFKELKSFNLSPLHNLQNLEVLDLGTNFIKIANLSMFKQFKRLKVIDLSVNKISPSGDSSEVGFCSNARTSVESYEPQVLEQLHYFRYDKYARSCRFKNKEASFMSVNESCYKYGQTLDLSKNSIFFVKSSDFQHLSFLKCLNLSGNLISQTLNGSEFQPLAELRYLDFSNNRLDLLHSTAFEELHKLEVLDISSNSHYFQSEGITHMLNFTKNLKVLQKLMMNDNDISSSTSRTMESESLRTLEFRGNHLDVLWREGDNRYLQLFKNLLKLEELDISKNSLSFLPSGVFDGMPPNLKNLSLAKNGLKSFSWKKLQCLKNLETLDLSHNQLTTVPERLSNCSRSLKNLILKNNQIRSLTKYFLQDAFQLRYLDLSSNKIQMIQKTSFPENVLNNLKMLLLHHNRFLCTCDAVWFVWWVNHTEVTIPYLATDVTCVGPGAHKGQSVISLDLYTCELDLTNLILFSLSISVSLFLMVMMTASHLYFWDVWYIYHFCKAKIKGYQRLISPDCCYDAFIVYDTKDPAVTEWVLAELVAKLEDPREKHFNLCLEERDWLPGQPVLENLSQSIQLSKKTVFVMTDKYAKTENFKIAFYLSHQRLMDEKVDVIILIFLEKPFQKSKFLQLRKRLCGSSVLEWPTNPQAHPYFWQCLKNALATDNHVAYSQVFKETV
Nature of the test: Human PBMC cell-based assay, TLR7 agonist GS-986 stimulation, cytokine (IL-6 and IFNα) readout. The note with it: human PBMCs, GS-986 400 nM, 6 hours; Table 26; read-out: TLR-7 EC50. The method in brief:
(§1)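 Readout is IL-6 and IFNα in supernatants, quantified by electrochemiluminescence, with EC50 from a sigmoidal fit of cytokine versus concentration. Healthy-donor human PBMCs, 100,000 per well, got antagonist for 1 h at 37 °C, then 6 h agonist exposure: TLR7 via GS-986 at 400 nM final, TLR9 via ODN-2216 at 3 μM final.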

The target in the next test is T2, TLR9 (Homo sapiens, UniProt Q9NR96).
T2 construct: lymphocytes, monocytes and dendritic cells that express TLR7, TLR8 and TLR9; endogenous in cells; host or cells: human PBMCs from healthy donors
T2 sequence (Q9NR96 26-1032): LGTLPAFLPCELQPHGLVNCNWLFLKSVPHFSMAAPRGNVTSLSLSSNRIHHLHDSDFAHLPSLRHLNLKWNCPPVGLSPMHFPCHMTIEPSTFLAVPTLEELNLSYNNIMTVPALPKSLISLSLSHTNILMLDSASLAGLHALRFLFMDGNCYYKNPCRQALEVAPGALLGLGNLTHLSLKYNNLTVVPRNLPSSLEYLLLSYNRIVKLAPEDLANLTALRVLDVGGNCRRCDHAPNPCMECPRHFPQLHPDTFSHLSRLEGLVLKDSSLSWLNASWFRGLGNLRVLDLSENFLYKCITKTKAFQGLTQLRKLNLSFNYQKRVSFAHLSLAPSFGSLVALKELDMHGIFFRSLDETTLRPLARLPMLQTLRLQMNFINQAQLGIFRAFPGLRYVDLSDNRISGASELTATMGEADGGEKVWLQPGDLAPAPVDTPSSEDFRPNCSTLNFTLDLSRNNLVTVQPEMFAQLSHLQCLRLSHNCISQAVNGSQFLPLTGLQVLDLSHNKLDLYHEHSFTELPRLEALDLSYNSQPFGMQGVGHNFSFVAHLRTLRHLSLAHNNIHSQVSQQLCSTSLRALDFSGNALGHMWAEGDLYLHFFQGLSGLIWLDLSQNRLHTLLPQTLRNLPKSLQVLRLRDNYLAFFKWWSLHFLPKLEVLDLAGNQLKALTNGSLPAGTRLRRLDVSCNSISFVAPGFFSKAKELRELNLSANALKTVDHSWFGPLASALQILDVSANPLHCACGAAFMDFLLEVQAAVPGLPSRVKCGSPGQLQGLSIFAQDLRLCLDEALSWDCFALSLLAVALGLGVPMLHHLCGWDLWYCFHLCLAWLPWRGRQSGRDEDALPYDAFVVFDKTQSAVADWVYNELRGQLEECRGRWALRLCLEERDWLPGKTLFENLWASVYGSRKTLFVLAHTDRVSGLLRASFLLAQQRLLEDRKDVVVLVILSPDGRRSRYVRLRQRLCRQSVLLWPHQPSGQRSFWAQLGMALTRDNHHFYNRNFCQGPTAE
Nature of the test: Human PBMC cell-based assay, TLR9 agonist ODN-2216 stimulation, cytokine (IL-6 and IFNα) readout. The note with it: human PBMCs, ODN-2216 3 μM, 6 hours; Table 26; read-out: TLR-9 EC50. The method in brief: as §1

We go through 29 compounds from patent US20250002471A1 (Gilead Sciences, Inc., priority 2020, published 2025).

Consider `Cc1cc(-c2[nH]c3cc(-c4csc(N5CCNCC5)n4)ccc3c2C)cc(C)n1` [Example 146, 4-[2-(2,6-dimethyl-4-pyridyl)-3-methyl-1H-indol-6-yl]-2-piperazin-1-yl-thiazole], for which the figures for the EC50 at TLR7 and at TLR9 were 119 nM and 37.4 nM, respectively.
For `Cc1cc(-c2[nH]c3cc(-c4ccc(C5CCN(CCO)CC5)nc4)ccc3c2C)cc(C)n1` [Example 163], the EC50 at TLR7 turned out to be 24.2 nM; on TLR9, 47.1 nM.
The corresponding values for `Cc1cc(-c2[nH]c3cc(-c4ccc(C(=O)N5CCC(N)CC5)nc4)ccc3c2C)cc(C)n1` [Example 145, (4-aminopiperidin-1-yl)(5-(2-(2,6-dimethylpyridin-4-yl)-3-methyl-1H-indol-6-yl)pyridin-2-yl)methanone] are 48.8 nM and 277 nM.
For `Cc1c(-c2cc(C)c3ncnn3c2)[nH]c2nc(C3CCNCC3)ccc12` [Example 153], the results for the EC50 on TLR7 and on TLR9 were 108 nM and 1580 nM, respectively.
On to `Cc1c(-c2cc(C#N)c(=O)n(C)c2)[nH]c2cc(-c3ccc(N4CCNCC4)nc3)ccc12` [Example 93], for which the concentration giving a half-maximal response (EC50) was determined as 205 nM on TLR7 and 909 nM at TLR9.
With `Cc1cc(-c2[nH]c3cc(-c4cccc(C(=O)N5CCNCC5)c4)ccc3c2C)cc(C)n1` [Example 12], the values for the EC50 at TLR7 and on TLR9 were 103 nM and 47.3 nM, respectively.
The like results for `Cc1cc(-c2[nH]c3cc(-c4ccc(S(=O)(=O)C5CCNCC5)cc4)ccc3c2C)cc(C)n1` [Example 42] were, in that order, 150 nM and 106 nM.
The corresponding values for `Cc1cc(-c2[nH]c3cc(-c4ccc(N5CCN(CC(C)(C)O)CC5)nc4)ccc3c2C)cc(C)n1` [Example 129, 1-(4-(5-(2-(2,6-dimethylpyridin-4-yl)-3-methyl-1H-indol-6-yl)pyridin-2-yl)piperazin-1-yl)-2-methylpropan-2-ol] are 14.4 nM and 24.7 nM.
`Cc1cc(-c2[nH]c3cc(-c4ccc5[nH]cnc5c4)ccc3c2C)cc(C)n1` [Example 44]: the EC50 on TLR7 is 121 nM; on TLR9 it was 242 nM.
Regarding `CCc1c(-c2cc(C)c3ncnn3c2)[nH]c2cc(C3CCNCC3)ccc12` [Example 52], the values for the EC50 at TLR7 and at TLR9 were 12 nM and 1920 nM, respectively.
The corresponding values for `Cc1cc(-c2[nH]c3cc(-c4ccc(N5CCN6CC(F)(F)C[C@H]6C5)nc4)ccc3c2C)cc(C)n1` [Example 144] are above 1000 nM and 727 nM.
The like results for `Cc1cc(-c2[nH]c3cc(C(=O)NC4CCNCC4)ccc3c2C)cc(C)n1` [Example 178, 2-(2,6-dimethylpyridin-4-yl)-3-methyl-N-(piperidin-4-yl)-1H-indole-6-carboxamide] were, in that order, above 1000 nM and 1880 nM.
The corresponding values for `COCCN1CCN(c2ccc(-c3ccc4c(C)c(-c5cc(C)nc(C)c5)[nH]c4c3)cn2)CC1` [Example 117] are 72.3 nM and 69.4 nM.
For `Cc1cc(-c2[nH]c3cc(-c4ccc(N5CCNCC5)nc4)ccc3c2C)c2cccnc2n1` [Example 99], the EC50 stood at 1.8 nM on TLR7 and 548 nM at TLR9.
The like results for `Cc1c(-c2cc(C)c3ncnn3c2)[nH]c2cc(C3CCNCC3)ccc12` [Example 51] were, in that order, 35.8 nM and 1670 nM.
For `Cc1cc(-c2[nH]c3cc(-c4ccc(N5CCN(CCN(C)C)CC5)nc4)ccc3c2C)cc(C)n1` [Example 114, 2-(4-(5-(2-(2,6-dimethylpyridin-4-yl)-3-methyl-1H-indol-6-yl)pyridin-2-yl)piperazin-1-yl)-N,N-dimethylethan-1-amine], the EC50 on TLR7 is 21.6 nM; at TLR9, 36.1 nM.
Regarding `Cc1cc(-c2[nH]c3cc(-c4ccc(N5CC6(CNCCO6)C5)nc4)ccc3c2C)cc(C)n1` [Example 29], the concentration giving a half-maximal response (EC50) came out at 31.6 nM on TLR7 and 122 nM at TLR9.
The like results for `Cc1c(-c2cnc(C(F)(F)F)nc2)[nH]c2cc(-c3ccc(N4CCNCC4)nc3)ccc12` [Example 83] were, in that order, 778 nM and 756 nM.
The corresponding values for `Cc1cc(-c2[nH]c3cc(-c4ccc5nc([C@H]6CCCCN6)[nH]c5c4)ccc3c2C)cc(C)n1` [Example 164] are 22.8 nM and 49.1 nM.
The like results for `Cc1cc(-c2[nH]c3cc(-c4ccc(N5CCNCC5)nc4)cnc3c2C)cc(C)n1` [Example 149, 2-(2,6-dimethyl-4-pyridyl)-3-methyl-6-(6-piperazin-1-yl-3-pyridyl)-1H-pyrrolo[3,2-b]pyridine] were, in that order, 1260 nM and 188 nM.
In the case of `Cc1cc(-c2[nH]c3cc(-c4ccc(N5CCN(CC(=O)N(C)C)CC5)nc4)ccc3c2C)cc(C)n1` [Example 116], the EC50 at TLR7 amounted to 140 nM; on TLR9 it was 67.9 nM.
The like results for `Cc1cc(-c2[nH]c3cc(C4CCNC4)ccc3c2C)cc(C)n1` (stereo not shown) [Example 54] were, in that order, 1390 nM and 69.4 nM.
The corresponding values for `Cc1cc(-c2[nH]c3nc(C4CCNCC4)ccc3c2C)cc(C)n1` [Example 152, 2-(2,6-dimethyl-4-pyridyl)-3-methyl-6-(4-piperidyl)-1H-pyrrolo[2,3-b]pyridine] are 1420 nM and 178 nM.
Take `Cc1cc(-c2[nH]c3cc(-c4cnn(C5CCNCC5)c4)ccc3c2C)cc(C)n1` [Example 6]: the EC50 was found to be 15.8 nM on TLR7 and 84.5 nM on TLR9.
Consider `Cc1cc(-c2[nH]c3cc(C(=O)N[C@H]4CCCNC4)ccc3c2C)cc(C)n1` [Example 179], for which the figures for the EC50 on TLR7 and on TLR9 were 334 nM and 211 nM, respectively.
On to `Cc1cc(-c2[nH]c3cc(-c4ccc(N5CCNCC5)nc4)ccc3c2C2CC2)cc(C)n1` [Example 63, 3-cyclopropyl-2-(2,6-dimethylpyridin-4-yl)-6-(6-(piperazin-1-yl)pyridin-3-yl)-1H-indole], for which the EC50 on TLR7 was determined as 4.8 nM; at TLR9 it was 189 nM.
The corresponding values for `Cc1cc(-c2[nH]c3cc(-c4ccc(N5CCNCC5)nc4)ccc3c2C)cn(C)c1=O` [Example 94, 1,3-dimethyl-5-(3-methyl-6-(6-(piperazin-1-yl)pyridin-3-yl)-1H-indol-2-yl)pyridin-2(1H)-one] are 4.5 nM and 139 nM.
The like results for `Cc1cncc(-c2[nH]c3cc(-c4ccc(N5CCNCC5)nc4)ccc3c2C)c1` [Example 84] were, in that order, 1990 nM and 964 nM.
The corresponding values for `Cc1c(-c2cnn3c2CCC3)[nH]c2cc(-c3ccc(N4CCNCC4)nc3)ccc12` [Example 89] are above 1000 nM and 428 nM.

What is called EC50 is the concentration that produces a half-maximal response.
